Experimental data published in patent US20130189690A1, “SCN5A Splice Variants for Use in Methods Relating to Sudden Cardiac Death and Need for Implanted Cardiac Defibrillators” (The United States Government as represented by the …, priority 2011, published 2013).

What was measured:
[1] = tested on: cardiac sodium channel (scn5a) mRNA; assay: scn5a mRNA abundance by quantitative real-time RT-PCR in H9c2 cells; type: cell-based, rat
Text: (§1) The rat embryonic cardiomyocyte cell line, H9c2 (ATCC cat #CRL-1446), or acutely isolated neonatal rat heart cardiomyocytes were used. Rat neonatal ventricular cells were isolated from 3-day-old Sprague-Dawley rats (Charles River Laboratories Wilmington, Mass.) using a kit and following the manufacturer's instructions (Worthington Biochemical Corp. Lakewood, N.J.). Cells cultured in Dulbecco's modified Eagle's medium (DMEM; ATCC, Manassas, Va.) with 10% fetal calf serum (ATCC) under standard tissue culture conditions at 37° C. to 70-80% confluence were exposed to AngII (Sigma, St. Louis, Mo.) or H2O2 (Sigma) in serum free culture medium (SFM) for a total of 48 h in triplicate in 24 well plates. Experiments were repeated three times. After dissociation with 0.125% trypsin-EDTA, 20 μL of 0.4% Trypan-blue (Sigma, St. Louis, Mo.) was added to each well, and a Trypan-blue exclusion viability assay was performed. The use of rats conforms with the Guide for the Care and Use of Laboratory Animals published by the US National Institutes of Health (NIH Publication No. 85-23, revised 1996).
(§2) To determine the abundance of cardiac sodium channel (scn5a) mRNA under the various conditions, quantitative real-time RT-PCR was used. […] PCR products were analyzed by relative standard curve methods β-Actin was used as a reference when making quantitative comparison.

[2] = tested on: cardiac sodium channel (scn5a) mRNA; assay: scn5a mRNA abundance by quantitative real-time RT-PCR in neonatal cardiomyocytes; type: cell-based, rat
Text: as §1, §2

[3] = tested on: NF-κB subunits p50 and p65 on the scn5a promoter; assay: Chromatin immunoprecipitation (ChIP) assay in H9c2 cells; type: cell-based, rat
Method: Formaldehyde cross-linking and chromatin immunoprecipitation was performed as described in manufactory's manual (ChIP-IT™ kit, Activemotif). Briefly, proteins were crosslinked with chromatin using 1% formaldehyde in H9c2 cells with or without treatment. The cells were subsequently sonicated in lysis buffer, and an aliquot of the lysate was used in a PCR reaction. The remaining lysate was cleared with protein G beads. One half of the cleared lysate was incubated with p50 or p65 antibody, while the other half was used as a negative control without the antibody. After reversing the cross-linking, the immuno-complex was digested with proteinase K, and the DNA was purified. DNA was analyzed by PCR with the PicoMax Polymerase (Stratagene, La Jolla, Calif.) and primers specific to the APS3 promoter region.

[4] = tested on: NF-κB binding to the scn5a promoter; assay: Electrophoretic mobility shift assay with H9c2 nuclear extracts; type: cell-based, rat; conditions: for effect of NF-κB inhibitor on NF-κB binding to scn5a promoter probe: CAPE 10 μM, H9c2, H2O2
Text: Approximately 5×10^6 cells were scraped for nuclear protein extraction by nuclear extract kit (Activemotif, Carlsbad, Calif.). A double-stranded oligonucleotide containing the consensus-binding sequence (bold) for […] ID NO. 657)) and NF-κB mutant sequence ([NT] ID NO. 658)) from scn5a promoter were used as probes to assay for binding activity of the nuclear extracts. Protein-DNA complexes were detected using biotin end-labeled double-stranded DNA probes prepared by annealing complementary oligonucleotides. Oligonucleotides were labeled in a reaction using terminal deoxynucleotide transferase and biotin-N4-CTP (Pierce, Rockford, Ill.) following the biotin 3' end DNA labeling kit manual. The binding reaction was performed using the LightShift kit (Pierce). […] Following electrophoresis, the DNA-protein complexes were transferred onto nylon membranes and detected using chemiluminescence. TNF-α activated H9c2 cell nuclear extract (5 μg) was used as positive control. The reaction products were separated on a 6% retardation gel.

[5] = tested on: cardiac Na+ channel current; assay: Whole-cell patch-clamp Na+ current in H9c2 cells; type: cell-based, rat; conditions: H9c2, 20 μM H2O2 for 48 h, voltage step to −10 mV
Method: Three hours prior to the start of the patch-clamp experiments, H9c2 cells were trypsinized and plated on treated plastic coverslips. H9c2 cells were treated with or without H2O2 as indicated. Glass pipettes were pulled on a Sutter Model P-97 horizontal puller to a resistance of 0.5 to 1.5 MΩ. The glass pipettes were filled with a solution of (in mM) CsCl 60, Cesium Aspartate 80, EGTA sodium 11, HEPES 10, Na2ATP 5 and pH 7.2 with CsOH. The bath solution consisted of (in mM) Na 30, […] chloride 100, CsCl 5, CaCl2 2, MgCl2 1.2, HEPES 10, Glucose 5 and pH 7.4 with NaOH. Once a seal was established, a small amount of suction was applied to obtain the whole cell configuration. From a holding potential of −100 mV, peak currents obtained at −10 mV were used for comparison. Cells were tested at 25° C. Data were sampled at 10 kHz and later filtered at 5 kHz for analysis. Currents were recorded and analyzed with an Axopatch 200B amplifier, Axon Digidata 1230A A/D converter and pClamp software (Molecular Devices Corporation, Sunnyvale, Calif.).

[6] = tested on: H9c2 cardiomyocytes; assay: Trypan-blue exclusion cell viability assay; type: cell-based
Method: To determine appropriate concentrations of these agents in future experiments, rat H9c2 cardiomyocytes were treated with escalating concentrations of AngII and H2O2, and the dose-dependent cell viability was determined. H9c2 cardiomyocytes were tolerant of a wide range of AngII concentrations from 1-500 nM in serum free medium (FIG. 14A). On the other hand, higher doses of H2O2 induced cell death starting at concentrations of 50 μM (FIG. 14B). […] Exposures of 48 h were used to allow sufficient time for transcriptional effects on the Na^+ current.
as §1, with “After dissociation with 0.125% trypsin-EDTA, 20 μL of 0.4% Trypan-blue (Sigma, St. Louis, Mo.) was added to each well, and a Trypan-blue exclusion viability assay was performed. The use of rats conforms with the Guide for the Care and Use of Laboratory Animals published by the US National Institutes of Health (NIH Publication No. 85-23, revised 1996).” left out

[7] = tested on: scn5a promoter; assay: scn5a promoter-reporter (dual luciferase) assay in H9c2 cells; type: cell-based, rat
Method: The scn5a promoter region has previously been defined (Shang, L. L. & Dudley, S. C., Jr. (2005) J. Biol. Chem. 280, 933-940). For these experiments, a new promoter construct that contained the NF-κB consensus binding site was used to test the effect of treatments on scn5a transcription. This construct, pGL3-APS3, consisted of a 937 bp fragment starting from exon 1C to +32 base pairs relative to the start codon located on exon 2 of mouse scn5a gene.
H9c2 cardiomyocytes were plated in each well of 24-well plates at a density of 2.5×10^4 cells in a final volume of 1 mL of culture medium, allowed to attach overnight, and expand to 70%-80% confluence. Transfection of 0.3 μg of the promoter-reporter construct and 0.013 μg of a plasmid containing the herpes simplex virus thymidine kinase (HSV-TK) promoter driving expression of a synthetic Renilla luciferase (phRL-TK; Promega, Madison, […].) was carried out with 0.9 μL of Fugene6 chemical transfection reagents (Roche, Indianapolis, Ind.) following the manufacturer's instructions. […] Light emission was quantified in a Veritas microplate luminometer using Veritas-version 1.4.0 software (Tuener Biosystems, Sunnyvale, Calif.). […] Four separate transfection sessions were analyzed, and at each session, transfections were performed in triplicate. Three dual luciferase readings were taken for each transfection experiment. […]

Compound: catalase
- effect of catalase on AngII-mediated downregulation of Na+ channel mRNA ([1]; H9c2, AngII 100 nM and PEG-catalase 250 U/mL, 48 h): prevented
- effect of catalase on AngII-mediated downregulation of Na+ channel mRNA ([2]; neonatal cardiomyocytes, AngII 2 nM and PEG-catalase 250 U/mL, 48 h): prevented

Compound: O=C(/C=C/c1ccc(O)c(O)c1)OCCc1ccccc1 [CAPE, caffeic acid phenethyl ester]
- effect of NF-κB inhibitor on binding of p50 and p65 to the channel promoter ([3]; H9c2, CAPE): could prevent biding of both subunits
- effect of NF-κB inhibitor on NF-κB binding to scn5a promoter probe [4]: prevented binding in response to H2O2
- effect of NF-κB inhibitor on NF-κB binding to scn5a promoter probe ([4]; listed as caffeic acid phenethyl ester): blocked

Compound: OO [H2O2]
- NF-κB subunit binding on the cardiac Na+ channel promoter ([3]; H9c2, AngII or H2O2 treatment): formation of the complete p50-p65 NF-κB heterodimer
- NF-κB binding activity to scn5a promoter probe ([4]; H9c2 nuclear extracts, 48 h AngII or H2O2): increased
- decrease in peak Na+ current [5]: 46%
- reduction in Na+ channel mRNA ([1]; H9c2 cells, 20 μmol/L H2O2, 48 h): 46.9%
- cell death at 20 μM H2O2 ([6]; 20 μM H2O2, 48 h): no statistically significant increase in cell death
- H2O2 concentration at which cell death starts ([6]; 48 h): ≥ 50 µM
- change in promoter activity of construct with mutated NF-κB binding site ([7]; APS3-NF-κBm, H9c2, AngII or H2O2): no significant change in activity
- depression of scn5a Na+ channel promoter activity ([7]; APS3 construct with intact NF-κB site, H9c2, 20 μM H2O2, 48 h): 42.3%
- reduction in Na+ channel mRNA ([2]; isolated neonatal rat myocytes, 40 nM H2O2, 48 h): 45.4%
